Data published in patent publication US9751876B2, “Bicyclic heterocycle derivatives for the treatment of pulmonary arterial hypertension” (Novartis AG, priority 2011, dated 2017).
Structures can show the parent of a compound that is named as a salt.

Each compound was assayed on PDGFR (assay: Rat A10 cell proliferation assay). Settings: Rat A10 cells, 1% FBS, 10 ng/mL recombinant rat PDGF-BB, 68 hours with compound, CellTiter-Glo luminescence.
Format: cell-based
Procedure: Compounds of Formula (I), (II) or (III) provided herein were assayed to measure their capacity to inhibit PDGFR kinases using the appropriate assay described below: PDGFR inhibition was evaluated using the Rat A10 cell proliferation.
Rat A10 Cell Proliferation Assay
Rat A10 cells (ATCC) were resuspended in DMEM supplemented with 1% FBS and 10 ng/mL recombinant rat PDGF-BB at 20,000 cells/mL. The cells were aliquoted into 384 well plates at 50 μL/well and incubated for 4 hours at 37° C. […] The plates were returned to the incubator for a further 68 hours. 25 μL of CellTiter-Glo (Promega) was added to each well and the plates were incubated on the bench for 15 minutes. Luminescence was then read using a CLIPR CCD camera (Molecular Devices).
Data were analysed using non-linear regression fitted to sigmoidal (variable slope) curves using a four parameter logistic equation to generate IC50 values for each compound.
CN1CCN(c2ccccc2CNC(=O)c2ccc(F)c(NC(=O)c3cnc4cc(-c5ccc(C(=O)NCCO)c(F)c5)ccn34)c2)CC1 [Example 1.2, 7-(3-Fluoro-4-(2-hydroxyethylcarbamoyl)phenyl)-N-(2-fluoro-5-(2-(4-methylpiperazin-1-yl)benzylcarbamoyl)phenyl)imidazo[1,2-a]pyridine-3-carboxamide] was tested, and the IC50 was 40 nM. CN(C)CCCOc1ccc(-c2ccn3c(C(=O)Nc4cc(C(=O)NCc5ccc(F)c(F)c5)ccc4F)cnc3c2)cn1 [Example 1.9, N-(5-(3,4-difluorobenzylcarbamoyl)-2-fluorophenyl)-7-(6-(3-(dimethylamino)propoxy)pyridine-3-yl)imidazo[1,2-a]pyridine-3-carboxamide] gave an IC50 of 11 nM. C[C@@H]1CCC[C@H](C)N1CCNC(=O)c1ccc(F)c(NC(=O)c2cnc3cc(-c4cccnc4)ccn23)c1 [Example 1.16, 1-(2-(4-fluoro-3-(7-(pyridine-3-yl)imidazo[1,2-a]pyridine-3-carboxamido)benzamido)ethyl)-2,6-cis-dimethylpiperidinium chloride] showed an IC50 of 27 nM. Cc1ncc(C(=O)NCc2ccccc2N2CCN(C)CC2)cc1NC(=O)c1cnc2cc(-c3ccnn3C)ccn12 [Example 1.19, 1-methyl-4-(2-((6-methyl-5-(7-(1-methyl-1H-pyrazol-5-yl)imidazo[1,2-a]pyridine-3-carboxamido)nicotinamido)methyl)phenyl)piperazin-1-ium chloride] was tested, and the IC50 was 74 nM. With C[C@@H]1CCC[C@H](C)N1CCNC(=O)c1ccc(F)c(NC(=O)c2cnc3cc(-c4cnn(C)c4)ccn23)c1 [Example 1.20, 7-(1-Methyl-1H-pyrazol-4-yl)-imidazo[1,2-a]pyridine-3-carboxylic acid {5-[2-(2,6-cis-dimethyl-piperidin-1-yl)-ethylcarbamoyl]-2-fluoro-phenyl}-amide hydrochloride] the IC50 was 13 nM. Work on CN(C)CCCOc1ccc(-c2ccn3c(C(=O)Nc4cc(C(=O)NCCOC(C)(C)C)ccc4F)cnc3c2)cn1 [Example 2.1, N-(5-(2-tert-Butoxyethylcarbamoyl)-2-fluorophenyl)-7-(6-(3-(dimethylamino)propoxy)pyridin-3-yl)imidazo[1,2-a]pyridine-3-carboxamide] yielded an IC50 of 3 nM. COCCN(C)Cc1cncc(-c2ccn3c(C(=O)Nc4cc(C(=O)NC[C@H]5CCC(C)(C)O5)ccc4F)cnc3c2)c1 [Example 2.6, (R)-N-(5-(((5,5-dimethyltetrahydrofuran-2-yl)methyl)carbamoyl)-2-fluorophenyl)-7-(5-(((2-methoxyethyl)(methyl)amino)methyl)pyridin-3-yl)imidazo[1,2-a]pyridine-3-carboxamide] showed an IC50 of 16 nM. O=C(NCc1ccc(F)c(F)c1)c1ccc(F)c(NC(=O)c2cnc3cc(-c4ccc(OCCN5CCCC5)nc4)ccn23)c1 [Example 3.1, N-(5-(3,4-Difluorobenzylcarbamoyl)-2-fluorophenyl)-7-(6-(2-(pyrrolidin-1-yl)ethoxy)pyridin-3-yl)imidazo[1,2-a]pyridine-3-carboxamide hydrochloride] showed an IC50 of 13 nM. CC(C)(C)OCCNC(=O)c1ccc(F)c(NC(=O)c2cnc3cc(-c4ccc(OCCN5CCCC5)nc4)ccn23)c1 [Example 3.2, N-(5-((2-(tert-Butoxy)ethyl)carbamoyl)-2-fluorophenyl)-7-(6-(2-(pyrrolidin-1-yl)ethoxy)pyridin-3-yl)imidazo[1,2-a]pyridine-3-carboxamide] showed an IC50 of 15 nM. CN1CCC(Oc2ccc(-c3ccn4c(C(=O)Nc5cc(C(=O)NCC6CCC(C)(C)O6)ccc5F)cnc4c3)cn2)CC1 (stereo not drawn) [Example 3.3, N-(5-(((5,5-dimethyltetrahydrofuran-2-yl)methyl)carbamoyl)-2-fluorophenyl)-7-(6-((1-methylpiperidin-4-yl)oxy)pyridin-3-yl)imidazo[1,2-a]pyridine-3-carboxamide] gave an IC50 of 10 nM. In the case of Cc1ccc(C(=O)NCc2ccccc2N2CCN(C)CC2)cc1NC(=O)c1cnn2cc(-c3ccnn3C)ccc12 [Example 4.1, 6-(1-Methyl-1H-pyrazol-5-yl)-N-(2-methyl-5-(2-(4-methylpiperazin-1-yl)benzylcarbamoyl)phenyl)pyrazolo[1,5-a]pyridine-3-carboxamide hydrochloride], the IC50 is reported as 12 nM. Work on CC(C)(O)CCc1ccn2c(C(=O)Nc3cc(C(=O)NCc4ccc(F)c(F)c4)ccc3F)cnc2c1 [Example 6.1, N-(5-(3,4-Difluorobenzylcarbamoyl)-2-fluorophenyl)-7-(3-hydroxy-3-methylbutyl)imidazo[1,2-a]pyridine-3-carboxamide] yielded an IC50 of 41 nM. CC(C)(CO)NC(=O)c1ccc(-c2ccn3c(C(=O)Nc4cc(C(=O)NCCN5CCCC5(C)C)ccc4F)cnc3c2)cc1F [Example 7.5, N-(5-(2-(2,2-Dimethylpyrrolidin-1-yl)ethylcarbamoyl)-2-fluorophenyl)-7-(3-fluoro-4-(1-hydroxy-2-methylpropan-2-ylcarbamoyl)phenyl)imidazo[1,2-a]pyridine-3-carboxamide] was tested, and the IC50 was 8 nM. Cc1ncc(C(=O)NCCN2CCCC2(C)C)cc1NC(=O)c1cnn2cc(-c3ccc(C(=O)NC(C)(C)CO)c(F)c3)ccc12 [Example 7.6, N-(5-(2-(2,2-Dimethylpyrrolidin-1-yl)ethylcarbamoyl)-2-methylpyridin-3-yl)-6-(3-fluoro-4-(1-hydroxy-2-methylpropan-2-ylcarbamoyl)phenyl)pyrazolo[1,5-a]pyridine-3-carboxamide] was tested, and the IC50 was 182 nM. O=C(NCc1ccc(F)c(F)c1)c1ccc(F)c(NC(=O)c2cnc3cc(-c4ccc(C(=O)NCCCN5CCOCC5)c(F)c4)ccn23)c1 [Example 8.1, N-(5-(3,4-Difluorobenzylcarbamoyl)-2-fluorophenyl)-7-(3-fluoro-4-(3-morpholinopropylcarbamoyl)phenyl)imidazo[1,2-a]pyridine-3-carboxamide hydrochloride] showed an IC50 of 4 nM. With C[C@@H]1CCC[C@H](C)N1CCNC(=O)c1ccc(F)c(NC(=O)c2cnc3cc(-c4ccc(C(=O)NC(C)(C)CO)c(F)c4)ccn23)c1 [Example 8.2, N-(5-(2-(2,6-cis-Dimethylpiperidin-1-yl)ethylcarbamoyl)-2-fluorophenyl)-7-(3-fluoro-4-(1-hydroxy-2-methylpropan-2-ylcarbamoyl)phenyl)imidazo[1,2-a]pyridine-3-carboxamide] the IC50 was 8 nM. CN1CCN(c2ccccc2CNC(=O)c2ccc(F)c(NC(=O)c3cnc4cc(-c5cc(F)cc(C(=O)NCCO)c5)ccn34)c2)CC1 [Example 8.4, N-(2-Fluoro-5-(2-(4-methylpiperazin-1-yl)benzylcarbamoyl)phenyl)-7-(3-fluoro-5-(2-hydroxyethylcarbamoyl)phenyl)imidazo[1,2-a]pyridine-3-carboxamide] showed an IC50 of 112 nM. Work on CCCC1CCN(CCNC(=O)c2ccc(F)c(NC(=O)c3cnc4cc(-c5cnn(C)c5)ccn34)c2)C1 (stereo not drawn) [Example 9.2, N-(2-Fluoro-5-((2-(3-propylpyrrolidin-1-yl)ethyl)carbamoyl)phenyl)-7-(1-methyl-1H-pyrazol-4-yl)imidazo[1,2-a]pyridine-3-carboxamide] yielded an IC50 of 11 nM. In the case of CC1CC(C)CN(CCNC(=O)c2ccc(F)c(NC(=O)c3cnc4cc(-c5cnn(C)c5)ccn34)c2)C1 (stereo not drawn) [Example 9.4, N-(5-((2-(3,5-Dimethylpiperidin-1-yl)ethyl)carbamoyl)-2-fluorophenyl)-7-(1-methyl-1H-pyrazol-4-yl)imidazo[1,2-a]pyridine-3-carboxamide], the IC50 is reported as 128 nM. In the case of Cc1ncc(C(=O)NCCN2CCCCC2(C)C)cc1NC(=O)c1cnn2cc(-c3cnn(C)c3)ccc12 [Example 9.13, N-(5-((2-(2,2-Dimethylpiperidin-1-yl)ethyl)carbamoyl)-2-methylpyridin-3-yl)-6-(1-methyl-1H-pyrazol-4-yl)pyrazolo[1,5-a]pyridine-3-carboxamide], the IC50 is reported as 7 nM. With CC[C@@H]1CN(CCNC(=O)c2ccc(F)c(NC(=O)c3cnc4cc(-c5cnn(C)c5)ccn34)c2)[C@H]1CC [Example 9.15, N-(5-((2-((2S,3R)-2,3-diethylazetidin-1-yl)ethyl)carbamoyl)-2-fluorophenyl)-7-(1-methyl-1H-pyrazol-4-yl)imidazo[1,2-a]pyridine-3-carboxamide] the IC50 was 2 nM.
